Where a name gives a salt, the structure may show the parent alone.

This note sets out measurements from patent US20250214966A1, “Crystalline Salt Form Of A SHP2 Inhibitor” (Array BioPharma Inc., priority 2022, published 2025).

This data set is described as follows: Photostability (2xICH), HPLC. The class given is physicochemical. From the text:
Photostability (Table 12): Sample preparation: Control—about 1 g of sample was transferred into a weighting bottle and covered with a glass cover. The sample was wrapped in aluminum foil to protect from light and placed into the photostability chamber. Photostability sample: about 1 g of sample was transferred into a weighing bottle, then placed into the photostability chamber. Storage conditions: The photostability samples were stored according to ICH Photostability Option 2: A cool white fluorescent lamp designed to produce an output similar to that specified in ISO 10977 (1993), a near UV fkuorescent lamp having a spectral distribution from 320 nm to 400 nm with a maximum energy emission between 350 nm and 370 nm; a significant portion of UV should be in both bands of 320 to 360 nm and 360 to 400 nm. The photo stability and dark control samples were exposed to the light equipment providing photo intensity if 5000±500 Lx (near ultraviolet energy 0.84 W/m^2±10%) and irradiated for 12 days (samples exposed to light providing an overall illumination of not less than 1.2 million lux hours and an integrated near UV energy of not less than 200 watt hours/quare meter).
Photostability (HPLC) (Table 12): An Agilent 1100 HPLC was used with a Waters XSelect HSS T3 Column (100 angstrom, 4.6×150 mm, 5 μm). The column temperature was set to 20° C., the UV wavelength set to 254 nm, the injection volume was 10 μL, with a flow rate of 1.0 mL/min. 10 mM ammonium acetate adjusted to pH 4.8 was used as a mobile phase A, and acetonitrile was used as mobile phase B. The gradient method was set up to achieve 15% mobile phase B at 0 minutes, 95% mobile phase B at 17 minutes—held until 22 minutes, 15% mobile phase. […]
Physical (PXRD) (Table 13): Powder X-ray diffraction analysis was conducted using a Bruker AXS D8 Endeavor diffractometer equipped with a Cu radiation source. […] Diffracted radiation was detected by a PSD-Lynx Eye detector, with the detector PSD opening set at 2.99 degrees. […]

With `Nc1nccc(Sc2cnc(N3CCC4(CC3)Cc3ccccc3[C@H]4N)nn2)c1Cl.Nc1nccc(Sc2cnc(N3CCC4(CC3)Cc3ccccc3[C@H]4N)nn2)c1Cl.O` [Example 2, (S)-1′-(6-((2-amino-3-chloropyridin-4-yl)thio)-1,2,4-triazin-3-yl)-1,3-dihydrospiro[indene-2,4′-piperidin]-1-amine Free Base Hemihydrate (Form 1)], the “Photostability (2xICH), photodeg RRT 1.16” value is listed as ~0.36% and the “Photostability (2xICH), photodeg RRT 1.62” value was ~0.32%.
Turning to `Nc1nccc(Sc2cnc(N3CCC4(CC3)Cc3ccccc3[C@H]4N)nn2)c1Cl` [Example 3, (S)-1′-(6-((2-amino-3-chloropyridin-4-yl)thio)-1,2,4-triazin-3-yl)-1,3-dihydrospiro[indene-2,4′-piperidin]-1-amine Mono Succinate Salt Form 1], the “Photostability (2xICH), decrease in purity” value stood at 0.53% decrease in purity.
